Biological target: T1, Cytosol Progesterone Receptor of the Estrogen-primed Immature Rabbit Uterus (Oryctolagus cuniculus, UniProt P06186)
T1 construct: cytosol progesterone receptor of the estrogen-primed immature rabbit uterus; tissue Dutchland Laboratories, Inc., Denver, Pa (animals); host or cells: uterus cytosol of estradiol-treated immature female New Zealand White rabbits
T1 sequence (P06186 1-930): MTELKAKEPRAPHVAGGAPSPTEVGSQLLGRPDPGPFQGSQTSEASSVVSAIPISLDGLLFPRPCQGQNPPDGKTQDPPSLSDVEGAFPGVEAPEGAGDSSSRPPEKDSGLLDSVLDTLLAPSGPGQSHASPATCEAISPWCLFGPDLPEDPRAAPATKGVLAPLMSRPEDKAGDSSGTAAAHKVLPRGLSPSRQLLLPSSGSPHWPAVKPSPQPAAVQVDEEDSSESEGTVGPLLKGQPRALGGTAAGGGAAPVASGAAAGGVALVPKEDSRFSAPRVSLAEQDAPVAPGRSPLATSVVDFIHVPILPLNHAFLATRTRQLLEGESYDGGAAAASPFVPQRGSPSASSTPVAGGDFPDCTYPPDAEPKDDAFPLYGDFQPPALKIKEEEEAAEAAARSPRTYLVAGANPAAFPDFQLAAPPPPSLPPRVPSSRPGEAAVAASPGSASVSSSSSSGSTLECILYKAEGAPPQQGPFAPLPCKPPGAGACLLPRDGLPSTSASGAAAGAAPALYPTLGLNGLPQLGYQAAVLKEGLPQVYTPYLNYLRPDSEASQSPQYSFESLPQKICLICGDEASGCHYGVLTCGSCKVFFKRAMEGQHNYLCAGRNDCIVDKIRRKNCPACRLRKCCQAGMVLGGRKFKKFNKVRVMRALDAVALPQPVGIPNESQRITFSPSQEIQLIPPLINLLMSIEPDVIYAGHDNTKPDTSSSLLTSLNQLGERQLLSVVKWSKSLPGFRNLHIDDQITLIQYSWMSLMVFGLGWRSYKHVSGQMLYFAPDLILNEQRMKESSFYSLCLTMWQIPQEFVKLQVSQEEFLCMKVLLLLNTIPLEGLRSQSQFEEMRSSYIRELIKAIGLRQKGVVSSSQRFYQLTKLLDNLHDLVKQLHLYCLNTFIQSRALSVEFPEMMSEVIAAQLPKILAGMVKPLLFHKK
Assay: Relative binding affinity for progesterone receptor (competition with 3H-progesterone)
Set-up: species or system rabbit (New Zealand White)

## C#C[C@]1(C(C)=O)CC[C@H]2[C@@H]3CCC4=CC(=O)CC[C@]4(C)[C@H]3CC[C@@]21C [17α-Ethynylprogesterone, 17α-ethynylprogesterone]
16 to 18 hour incubation at 0° C., spurious value 11 excluded
  RBA, mean of assays (X±S.D.): 189±55
Assay 1, 16-18 hour incubation, progesterone = 100, 5α-dihydro-17α-ethynyl: lot 1
  RBA: 156%
Assay 2, 16-18 hour incubation, progesterone = 100, 5α-dihydro-17α-ethynyl: lot 1
  RBA: 267%
Assay 3, 16-18 hour incubation, progesterone = 100, 5α-dihydro-17α-ethynyl: lot 1
  RBA: 144%
two-hour incubation at 0° C.
  RBA: 352
